# Source: US20090176835A1, “PHARMACEUTICAL COMPOSITION FOR SUPPRESSION OF THE EXPRESSION OF ATP CITRATE LYASE AND USE THEREOF” (Ajinomoto Co., Inc., priority 2002, published 2009)
# Key:
# [1] = tested on: rat ACL gene (GenBank ID: J05210); test: Liver ACL expression analyzed with DNA chips, Experiment 2 (GK rats); format: in vivo
# Procedure: In Experiment 1, methylcellulose or 50 mg/kg of nateglinide suspended in methylcellulose was orally administered to normal Wistar rats fasted overnight. One hour after the administration, the liver was taken from each rat and freezed. The total RNA was extracted with RNeasy kit (Qiagen Co. Ltd). Biotinylated cRNA probe was prepared by a standard method and then it was hybridized to rat genome U34 array (Affymetrix Co. Ltd). The amount of cRNA hybridized to rat ACL gene (GenBank ID: J05210) was analyzed with Microarray Suite 5.0 software (Affymetrix Co. Ltd). Also in Experiment 2, 1 g/kg of glucose, 50 mg/kg of nateglinide or both of glucose and nateglinide were orally administered to Wistar rats and GK rats fasted overnight. One hour after the administration, the liver was taken from each rat and the expression of ACL level was analyzed with DNA chips in the same manner as that in Experiment 1.
# [2] = after 30 days' administration; patients without liver diseases (Drugs R&D 2(2):123 (1999)); cited from earlier work
# [3] = Insulin level in GK rat portal vein after nateglinide; format: in vivo; conditions: after administration
# [4] = tested on: rat ACL gene (GenBank ID: J05210); test: Liver ACL expression analyzed with DNA chips, Experiment 1 (normal Wistar rats); format: in vivo
# Procedure: The effect of nateglinide on the expression of liver ACL was analyzed with DNA chips. In Experiment 1, methylcellulose or 50 mg/kg of nateglinide suspended in methylcellulose was orally administered to normal Wistar rats fasted overnight. One hour after the administration, the liver was taken from each rat and freezed. The total RNA was extracted with RNeasy kit (Qiagen Co. Ltd). Biotinylated cRNA probe was prepared by a standard method and then it was hybridized to rat genome U34 array (Affymetrix Co. Ltd). The amount of cRNA hybridized to rat ACL gene (GenBank ID: J05210) was analyzed with Microarray Suite 5.0 software (Affymetrix Co. Ltd).
# [5] = Blood GOT and GPT as indices of liver function in patients with type 2 diabetes, 12 weeks oral nateglinide; format: in vivo, human; conditions: for GOT, change (0 to 12 weeks) / GPT, change (0 to 12 weeks): decrease, p<0.05
# Procedure: Nateglinide was orally administered to patients with type 2 diabetes three times a day in a dose of usually […] before meals for 12 weeks. Blood GOT and GPT concentrations were determined as indices of the liver function in 0 week and 12th week. In analysis 1, the results obtained by the oral administration of nateglinide to 53 patients with type 2 diabetes each having fatty liver for 12 weeks were analyzed. In analysis 2, the results obtained by the oral administration of nateglinide to 16 cases of type-2 diabetes having liver disorders (GOT, GPT≧51 IU/L) were analyzed.
# [6] = cited from earlier work
# [7] = analysis 1: 53 type 2 diabetes patients with fatty liver
# [8] = analysis 1: type 2 diabetes patients with fatty liver, 12 weeks
# [9] = analysis 2: 16 cases of type-2 diabetes with liver disorders
# [10] = analysis 2: type-2 diabetes with liver disorders, 12 weeks
smiles,measurement,setting,value
"CC(C)[C@H]1CC[C@H](C(=O)N[C@H](Cc2ccccc2)C(=O)O)CC1 [nateglinide, (−)-N-(trans-4-isopropylcyclohexanecarbonyl)-D-phenylalanine]","Expression level of liver ACL (cRNA hybridized to rat ACL gene), Analysis 1","[1]; Experiment 2 group 5, GK rats fasted overnight, 50 mg/kg oral with 1 g/kg glucose, liver 1 h after, GK controls 139.6",66.4
same,"Expression level of liver ACL (cRNA hybridized to rat ACL gene), Analysis 2","[1]; Experiment 2 group 5, GK rats fasted overnight, 50 mg/kg oral with 1 g/kg glucose, liver 1 h after, GK controls 452.5 / 416.7",189.9
same,Elevated liver ACL expression level,"[1]; GK rats, Experiment 2, groups 3, 4 vs 5",significantly suppressed and returned to the normal level
same,Alterations in liver function,[2],no significant alterations
same,Insulin level in portal vein,[3],transient increase
same,"Expression level of liver ACL (cRNA hybridized to rat ACL gene), Analysis 1","[4]; Wistar rats fasted overnight, 50 mg/kg oral, no glucose, liver 1 h after, methylcellulose control 96.2",144.4
same,"Expression level of liver ACL (cRNA hybridized to rat ACL gene), Analysis 2","[4]; Wistar rats fasted overnight, 50 mg/kg oral, no glucose, liver 1 h after, methylcellulose control 459.3",543.6
same,Suppression of liver ACL mRNA level,[4]; normal Wistar rats,no significant suppression
same,GOT value after administration,"[5]; 5 cases with fatty liver and NASH-like liver troubles (GOT, GPT≧51 IU/L, GPT>GOT), reduced from 138.6±56.0",83.6±41.5 IU/L
same,GPT value after administration,"[5]; 5 cases with fatty liver and NASH-like liver troubles (GOT, GPT≧51 IU/L, GPT>GOT), reduced from 242.6±112.8",57.8±59.2 IU/L
same,"GOT, 12th week","[5]; analysis 1: 53 type 2 diabetes patients with fatty liver, 12 weeks oral, 0 week 58.4 ± 34.4",33.8 ± 22.9 IU/L
same,"GPT, 12th week","[5]; analysis 1: 53 type 2 diabetes patients with fatty liver, 12 weeks oral, 0 week 77.2 ± 55.9",44.0 ± 29.7 IU/L
same,"GOT, change (0 to 12 weeks)",[5]; [7],24.7 ± 12.4 IU/L
same,"GPT, change (0 to 12 weeks)",[5]; [7],33.2 ± 31.0 IU/L
same,Level of GOT after administration compared with before,[5]; [8],statistically significant lowered
same,Level of GPT after administration compared with before,[5]; [8],statistically significant lowered
same,"GOT, 12th week","[5]; analysis 2: 16 cases of type-2 diabetes with liver disorders (GOT, GPT≧51 IU/L), 0 week 133.3 ± 51.3",85.4 ± 40.9 IU/L
same,"GPT, 12th week","[5]; analysis 2: 16 cases of type-2 diabetes with liver disorders (GOT, GPT≧51 IU/L), 0 week 217.3 ± 94.1",80.2 ± 53.4 IU/L
same,"GOT, change (0 to 12 weeks)",[5]; [9],47.8 ± 37.9 IU/L
same,"GPT, change (0 to 12 weeks)",[5]; [9],137.0 ± 43.4 IU/L
same,GOT before vs after administration,[5]; [10],statistically significant lowering
same,GPT before vs after administration,[5]; [10],statistically significant lowering
same,Effect of hepatic cirrhosis on pharmacokinetics,"[6]; J. Clin. Pharmacol. 40:634 (2000), Drugs 60(3):607 (2000)",no significant effect
same,Increase of total exposure,"[6]; subjects with mild hepatic impairment (Am J Health-Syst Pharm 58, 285 (2001))",30%
